Data as given in publication PMC11275179, “Superior Anticancer and Antifungal Activities of New Sulfanyl-Substituted Niclosamide Derivatives” (Biomedicines, 2024).
≈ marks a conversion by molar mass, not a printed value. Where “and” joins values, the source holds several entries; their conditions need not be identical. Equal entries are not always repeated. Where two headings read alike, the source gives them in different places.

Columns and labels:
SK-GT-4 EAC cells = assay: MTT proliferation assay, SK-GT-4 cells; type: cell-based; conditions: read-out: Antiproliferative activity IC50, SK-GT-4
Description: (§1) The FLO-1, SK-GT-4, and THP-1 cell lines were a gift from Dr. Shrikant Anant’s laboratory. Cells were grown in 10% fetal bovine serum (Fisher Scientific#FB12999102, Pittsburgh, PA, USA) and 1% antibiotic/antimycotic agent (Corning, Tewksbury, MA, USA) in RPMI 1640 media mixed with […] HEPES, L-glutamine (Corning, MA, USA). The cell lines were grown in a 5% CO2 incubator at 37 °C and used below 15 passages for the experiments.
(§2) The proliferation assay used a 3-(4,5-dimethylthiazol-2-yl)-2,5-diphenyltetrazolium bromide (MTT) assay. Briefly, 5000 FLO-1 and SK-GT-4 cells were counted and seeded in each well in 96-well plates. Post 24 h of incubation, EAC cells were treated with multiple concentrations (0–10 μM) of niclosamide (Cayman chemical#10649, Ann Arbor, MI, USA) and its analogs. At respective time points, 10 μL of stock MTT reagent (Millipore Sigma, Bedford, MA, USA) (3 mg/mL) was added to each well and incubated for 1–2 h under the dark at 37 °C. After incubation, the purple formazan crystals were dissolved in equal volumes of DMSO, and the absorbance of the resulting clear solutions was recorded at 570 nm using a microplate reader. A CCK-8 (Abcam, Cat no. ab228554, Burlingame, CA, USA) assay was used for the THP-1 cells. Briefly, 5000 cells were plated in every well of a 96-well plate. After 24 h of plating, THP-1 cells were treated with niclosamide and compound 3a. After the respective time point, an equal amount of CCK-8 reagent was pipetted to the wells and incubated for one hour in an incubator, and finally, the absorbance was recorded at 450 nm. The percent change in the proliferation was calculated by comparing the cell viability of the treated groups to the untreated control cells.

FLO-1 EAC cells = assay: MTT proliferation assay, FLO-1 cells; type: cell-based; conditions: read-out: Antiproliferative activity IC50, FLO-1
Description: as §1, §2

[1] = test system: M. mycetomatis MM55 strain; assay: In vitro susceptibility testing (MTS), MM55 strain; type: cell-based, Madurella mycetomatis; conditions: for IC90: read-out: Antifungal activity IC90; for IC50: read-out: Antifungal activity IC50
Description: (§3) The antifungal activity of the compounds was tested against a geographically and genetically diverse set of M. mycetomatis isolates. These included the MM55 strain from Sudan, strains I1, I3, and […] from India, strain P1 from Mali, strain SO1 from Somalia, strain Peru72012 from Peru, and strain CBS247.48 whose country of origin was unknown. All isolates were originally obtained from patients and identified and maintained in the Erasmus Medical Centre, Rotterdam, The Netherlands. In vitro susceptibility testing was performed as reported previously. The only difference was that tetrazolium compound 3-(4,5-dimethylthiazol-2-yl)-5-(3-carboxymethoxyphenyl)-2-(4-sulfophenyl)-2H-tetrazolium salt (MTS) was used as a viability dye in endpoint reading instead of 2,3-bis-(2-methoxy-4-nitro-5-sulfophenyl)-2H-tetrazolium-5-carboxanilide salt (XTT).

M. mycetomatis strains = assay: In vitro susceptibility testing (MIC), panel of eight strains; type: cell-based, Madurella mycetomatis; conditions: for MIC50: concentration at which 50% of the eight isolates were completely inhibited
Description: as §3

[2] = test system: Galleria mellonella larvae; assay: Toxicity in healthy Galleria mellonella larvae; type: in vivo; conditions: 20 µM, 10 days
Description: (§4) In vivo efficacy was determined in larvae of the greater wax moth Galleria mellonella. Since G. mellonella is an invertebrate, it is not subject to directive 2010/63/EU of the European law on animal testing. Larvae were housed in the dark in Petri dishes with Whatman paper. To determine the toxicity in G. mellonella larvae, test compounds were injected on three consecutive days at 24 h intervals in the last pro-leg of healthy larvae followed by monitoring of the survival for ten days. If no significant difference between the control and treated larvae was observed, the compound was considered nontoxic. Larvae were further used in infection studies to determine the in vivo activity of test compounds against M. mycetomatis according to our previously published protocol.

[3] = test system: M. mycetomatis MM55 strain; assay: In vivo activity in M. mycetomatis-infected G. mellonella larvae; design: species or system Galleria mellonella; d10 AUC / d10 ΔAUC: unit not given here; conditions: 20 µM; for d10 AUC: area under the survival curve; for d10 Survival / d10 Survival Corrected with Control: day 10; for d10 ΔAUC: versus control
Description: as §4

Kinetic solubility = type: physicochemical; conditions: aqueous buffer
Description: Kinetic solubility was tested using 10 mM stock solutions of test compounds in DMSO followed by dilution with an aqueous buffer to a final concentration of 250 µM and vortexed at 900 rpm for 24 h. Then, the samples were filtered and analyzed by UHPLC (Shimadzu Nexera X2, Milton Keynes, UK).

CHI logD = type: physicochemical; conditions: reversed-phase UHPLC
Description: CHI (chromatographic hydrophobicity index) logD was determined according to previously published methods. Test compounds were prepared as 0.5 mM solutions in 50:50 acetonitrile/water and analyzed by reversed-phase UHPLC (wavelength 254 nm). By plotting the retention time of a set of reference compounds against known CHI values, the CHI value of test compounds was calculated according to their retention time, and this was then further converted to CHI logD.

Microsomal clearance = type: in vitro ADME; conditions: for half-life at 0.5 µM: female, CD1, pH 7.4, mouse liver microsomes, read-out: Microsomal T ½; for Microsomal Clearance: mouse liver microsomes, 0.5 µM
Description: Liver microsomes were applied to study the microsomal clearance of test compounds. The test compound (0.5 µM) was incubated with female CD1 mouse liver microsomes (0.5 mg/mL, 50 mM potassium phosphate buffer, pH 7.4), and the reaction started with the addition of excess NADPH (8 mg/mL, 50 mM potassium phosphate buffer, and pH 7.4). Immediately, at time 0, then at 3, 6, 9, 15, and 30 min, an aliquot of the incubation mixture was removed and mixed with acetonitrile to stop the reaction. An internal standard (IS) was added to all samples, the samples were centrifuged to sediment precipitated protein, and the plates were then sealed prior to UPLC-MSMS analysis (Xevo TQ-S Micro, Waters^TM, Milford, MA, USA). An exponential decay fit was created from the response ratio (compound peak area/IS peak area) and incubation time, and subsequently, Clint (mL/min/mg protein) was calculated by multiplying the rate constant (k) of the exponential decay curve and incubation conditions (incubation volume/mg protein added).

[4] = HepG2 hepatotoxicity, resazurin assay; type: cell-based; conditions: human, HepG2 hepatoma cells, two independent experiments
Description: (§5) HepG2 hepatoma cells were used for hepatotoxicity studies. Cells were provided by ECACC with a certificate of analysis confirming STR profiling and were mycoplasma tested every time new stabilates were made. Cells were screened utilizing a resazurin-based fluorescence assay (λex = 540 nm, λem = 590 nm) in a 384-well plate format. HepG2 cells (1 × 10^5 cells/mL) were incubated with the compound in a 10-point, 1 in 3 dilution series from a top concentration of 100 µM, for 72 h. After the 72 h incubation period, resazurin (0.27 mM in a cell culture medium) was added and the plates were incubated for a further 3–4 h before the fluorescent signal was measured using PHERAstar (BMG Labtech, Ortenberg, Germany). IC50 values were calculated from two independent experiments.

HepG2 hepatoma cells = assay: HepG2 hepatotoxicity, resazurin assay; type: cell-based; conditions: 72 h, two independent experiments
Description: as §5

[5] = test system: M. mycetomatis SO1 isolate; design: method as in PMID 34209118; conditions: read-out: IC50 against the Somalian SO1 isolate; cited from earlier work
[6] = Madurella mycetomatis, MM55STRAIN
[7] = Madurella mycetomatis, CBS247, strain CBS247.48, read-out: MIC, CBS247.48
[8] = Madurella mycetomatis, strain I1, read-out: MIC, I1
[9] = Madurella mycetomatis, strain I3, read-out: MIC, I3
[10] = Madurella mycetomatis, strain I11, read-out: MIC, I11
[11] = Madurella mycetomatis, strain MM55, read-out: MIC, MM55
[12] = Madurella mycetomatis, strain P1, read-out: MIC, P1
[13] = Madurella mycetomatis, strain Peru72012, read-out: MIC, Peru72012
[14] = Madurella mycetomatis, strain SO1, read-out: MIC, SO1

| SMILES | IC50 (SK-GT-4 EAC cells; SKGT4, 72 h) [nM] | IC50 (FLO-1 EAC cells; FLO-1, 72 h) [nM] | IC90 [1, 6] [nM] | MIC (M. mycetomatis strains; [7]) [µM] | MIC (M. mycetomatis strains; [8]) [µM] | MIC (M. mycetomatis strains; [9]) [µM] | MIC (M. mycetomatis strains; [10]) [µM] | MIC (M. mycetomatis strains; [11]) [µM] | MIC (M. mycetomatis strains; [12]) [µM] | MIC (M. mycetomatis strains; [13]) [µM] | MIC (M. mycetomatis strains; [14]) [µM] | MIC50 (M. mycetomatis strains; Madurella mycetomatis) [µM] | d10 AUC [3] | d10 Survival Corrected with Control ([3]; infected larvae) [%] | d10 ΔAUC [3] | IC50 [1, 6] [nM] | other results |
| --- | --- | --- | --- | --- | --- | --- | --- | --- | --- | --- | --- | --- | --- | --- | --- | --- | --- |
| N.N.[Cl][Pt][Cl] [Cisplatin, reference compound] |  |  |  |  |  |  |  |  |  |  |  |  |  |  |  |  | IC50 (SK-GT-4 EAC cells; 72 h): 2280 ± 140 nM; IC50 (FLO-1 EAC cells; 72 h): 1700 ± 1480 nM |
| O=C(Nc1ccc(S(F)(F)(F)(F)F)cc1)c1cc(Cl)ccc1O [Compound 2a, 5-Chloro-2-hydroxy-N-(4-pentafluorosulfanylphenyl)benzamide] | 1800 ± 170 | 1620 ± 550 | 1900 ± 600 | 0.5 (≈ 0.187 µg/mL) | 0.5 (≈ 0.187 µg/mL) | 0.5 (≈ 0.187 µg/mL) | 0.5 (≈ 0.187 µg/mL) | 0.5 (≈ 0.187 µg/mL) | 0.5 (≈ 0.187 µg/mL) | 0.3 (≈ 0.112 µg/mL) | 0.5 (≈ 0.187 µg/mL) | 0.5 (≈ 0.187 µg/mL) | 445 | 13.33 | 113.3 |  | IC50 [1]: 300 ± 100 nM; Toxicity to non-infected G. mellonella larvae [2]: not toxic; d10 Survival ([3]; infected larvae): 26.7% and 26.67%; solubility kinetic at 24 h (Kinetic solubility; kinetic from dmso stock): 0.67 µM (≈ 0.25 µg/mL); chromatographic logD (CHI logD): 3.9; half-life at 0.5 µM (Microsomal clearance): > 30 min; Microsomal Clearance (Microsomal clearance): 0.02 mL/min/mg Protein; IC50 at 72 h [4]: 2300 to 3000 nM; IC50 (HepG2 hepatoma cells): 2260 ± 310 nM |
| O=C(Nc1ccc(SC(F)(F)F)cc1)c1cc(Cl)ccc1O [Compound 2b, 5-Chloro-2-hydroxy-N-(4-trifluoromethylsulfanylphenyl)benzamide] |  |  |  | 0.5 (≈ 0.174 µg/mL) | 0.5 (≈ 0.174 µg/mL) | 0.5 (≈ 0.174 µg/mL) | 0.5 (≈ 0.174 µg/mL) | 0.5 (≈ 0.174 µg/mL) | 0.3 (≈ 0.104 µg/mL) | 0.3 (≈ 0.104 µg/mL) | 0.5 (≈ 0.174 µg/mL) | 0.5 (≈ 0.174 µg/mL) | 451.7 | −3.33 | 120 |  | IC50 (SK-GT-4 EAC cells; 72 h): 2020 ± 140 nM; IC50 (FLO-1 EAC cells; 72 h): 2200 ± 360 nM; IC50 [1]: 200 ± 100 nM; IC90 [1]: 500 ± 600 nM; Toxicity to non-infected G. mellonella larvae [2]: not toxic; Effect on survival between days three and six ([3]; infected larvae): considerable temporary effect; d10 Survival ([3]; infected larvae): no increased survival; Kinetic solubility (Kinetic solubility; 24 h): stability issues; chromatographic logD (CHI logD): 4.3; half-life at 0.5 µM (Microsomal clearance): 6.66 min; Microsomal Clearance (Microsomal clearance): 0.21 mL/min/mg Protein; IC50 at 72 h [4]: 2300 to 3000 nM; IC50 (HepG2 hepatoma cells): 2990 ± 110 nM; melting point: 200 to 201 °C |
| O=C(Nc1cccc(S(F)(F)(F)(F)F)c1)c1cc(Cl)ccc1O [Compound 2c, 5-Chloro-2-hydroxy-N-(3-pentafluorosulfanylphenyl)benzamide] | 1380 ± 450 | 1380 ± 400 | 2000 ± 100 | 2 (≈ 0.747 µg/mL) | 1 (≈ 0.374 µg/mL) | 1 (≈ 0.374 µg/mL) | 2 (≈ 0.747 µg/mL) | 2 (≈ 0.747 µg/mL) | 0.5 (≈ 0.187 µg/mL) | 1 (≈ 0.374 µg/mL) | 1 (≈ 0.374 µg/mL) | 1 (≈ 0.374 µg/mL) | 346.7 | −3.33 | 15 | 1300 ± 700 | melting point: 197 °C |
| CCc1ccc(NC(=O)c2cc(Cl)ccc2O)cc1 [Compound 2d] | 7100 ± 750 | 6130 ± 960 | 8400 ± 1100 |  |  |  |  |  |  |  |  |  |  |  |  | 6600 ± 2000 |  |
| O=C(Nc1ccc(C(F)(F)F)cc1)c1cc(Cl)ccc1O [Compound 2e] |  |  | 1100 ± 200 | 2 (≈ 0.631 µg/mL) | 1 (≈ 0.316 µg/mL) | 1 (≈ 0.316 µg/mL) | 2 (≈ 0.631 µg/mL) | 2 (≈ 0.631 µg/mL) | 1 (≈ 0.316 µg/mL) | 1 (≈ 0.316 µg/mL) | 1 (≈ 0.316 µg/mL) | 1 (≈ 0.316 µg/mL) | 453.3 | 3.33 | 121.6 | 900 ± 200 | MIC (M. mycetomatis strains; strain MM55, read-out: MIC, MM55): 1.0 µM (≈ 0.316 µg/mL) |
| O=C(Nc1cccc(C(F)(F)F)c1)c1cc(Cl)ccc1O [MMV665807] |  |  |  |  |  |  |  |  |  |  |  |  |  |  |  |  | IC50 [5]: 9930 nM |
